Source: patent US20220028483A1, “SYSTEMS AND METHODS FOR CLASSIFYING TUMORS” (PRESIDENT AND FELLOWS OF HARVARD COLLEGE, priority 2018, published 2022)

Test system: breast cancer cell lines
Experiment: Drug response (IC50, GDSC data) of breast cancer cell lines classified Signature 3-positive or -negative by SigMA
Assay type: cell-based
Conditions: five Signature 3-positive vs twelve Signature 3-negative breast cancer cell lines; p=0.044, Kolmogorov-Smirnov test
From the text: To test the hypothesis that the presence of Signature 3 indicates susceptibility to PARP inhibition, the response of diverse cancer cell lines was examed to the two popular PARP inhibitors olaparib and velirapib (Supplementary Methods Section 12). The disclosed SigMA example algorithm was first applied to 700 cell lines from the Cancer Cell Line Encyclopedia (CCLE) project (Basu et al., 2013) to identify those with Signature 3. Mutation calls from a 1651-gene panel and copy number calls from single-nucleotide polymorphism (SNP) arrays were available for each cell line. In applying SigMA, a stringent filter was used to discriminate the cell lines with Signature 3 mutations from those without Signature 3 but with a large number of in vitro culture-associated mutations (Online Methods and Supplementary Methods Section 12). Also, cell lines with MSI signatures were removed to minimize their confounding effect (see Vilar Sanchez et al. (2009), and Supplementary FIG. 6f). […]
Among 1074 cell lines in total, the mutational spectra of 700 cell lines were analyzed of major tumor types with SigMA, but only 136 of these had drug response data for either olaparib or veliparib. […]

SMILES: O=C(c1cc(Cc2n[nH]c(=O)c3ccccc23)ccc1F)N1CCN(C(=O)C2CC2)CC1 [olaparib]
- fold decrease of IC50 values in Signature 3-positive vs Signature 3-negative cell lines: 2.6 fold
